Read-outs that look alike come from different tables or passages of the source.
Experiments:
[1] = system: Isolated Cat Papillary Muscle; experiment: Test for Cardiotonic Activity in Isolated Cat Papillary Muscle; assay type: cell-based; settings: Felis catus; for EC50: increase in force of contraction, stimulated at 0.5 Hz, 37° C.; for activation at 100 µM: read-out: % increase (force of contraction)
Procedure: Test for Cardiotonic Activity in Isolated Cat Papillary Muscle
A cat of either sex was anesthetized with Na pentobarbital, 25-30 mg/kg i.v. The heart was rapidly removed and placed in cool Tyrode's solution which had been equilibrated with 95% O2 -5% CO2. The right ventricle was opened by cutting down the sides and around the apex so that the free wall could be folded back on the atriventricular groove. Usually at least three suitably-sized papillary muscles were found (1 mm or less in thickness). Threads were tied around the chordae tendonae and the base of the muscle just above its point of insertion into the ventricular wall. The chordae were cut, and the muscle was removed along with a small button of ventricular wall. If a sufficient number of papillary muscles were not present, trabeculae carnae could also be used. The best ones were usually found inserting just under the valve.
The preparations were mounted in tissue baths containing Tyrode's solution at 37° C. bubbled with 95% O2 -5% CO2. One thread was affixed to a tissue holder incorporating a pair of platinum electrodes and the other thread was attached to a force displacement transducer. Initial tension placed on the preparation was 0.2 g (less for very small muscles). The preparations were stimulated with square-wave pulses, 2-4 msec. in duration and 10% above threshold voltage, at a rate of 0.5 Hz. […] The preparations were then allowed to equilibrate for one hour with frequent changes of the bathing fluid (10-15 min. intervals). The test compound was added to the bath in 0.1 mL of vehicle and incubated with the preparation for 15 min. or until peak effect was attained.
Using this method, the following representative compounds of formula I were effective for increasing the force of contraction of the papillary muscle.

[2] = system: Pentobarbital-Induced Cardiac Failure in the Dog; experiment: Pentobarbital-induced Cardiac Failure in the Dog; assay type: in vivo; settings: Canis lupus familiaris, iv, anesthetized dog, read-out: ED50 (dose i.v. to give a 50% increase in dP/dt)
Procedure: Pentobarbital-induced Cardiac Failure in the Dog
A dog of either sex was anesthetized with Na pentobarbital, 30-35 mg/kg i.v. The trachea was intubated and the animal was respired at a rate of 20 breaths/min (stroke volume=15 cc/kg). Both femoral veins were cannulated. One cannula was used for infusion of pentobarbital to induce and maintain failure, the other for injection of test compounds. A cannual was inserted into the aorta via a femoral artery and the cannula was attached to a blood pressure transducer for measurement of systolic, diastolic and mean aortic blood pressure. A Millar pressure-tip catheter was inserted into the other femoral artery and advanced into the left ventricle to record intraventricular pressure and dP/dt. Subdermal needle electrodes were used to record a lead II electrocardiogram and heart rate.
Following a stabilization period of at least 30 min, experimental failure was induced by the i.v. infusion of Na pentobarbital, 0.75 mg/kg/min in 0.2 mL of saline/min, until a 40-50% decrease in peak positive dP/dt was obtained. The failure state was maintained at this level throughout the experiment by continuous infusion of Na pentobarbital, 0.11-0.15 mg/kg/min. Once the maintenance infusion was started, at least 15 min were allowed to elapse before test drugs were administered.
Test compounds were prepared in N saline. Increasingly higher doses were given i.v. at 30 min-1 hr intervals in order to determine a therapeutic (50% increase in dP/dt) to toxic (appearance of arrhythmias) ratio where possible.
Using this method, the following representative compounds of formula I were effective for increasing the cardiac contractility of the heart (the amount of test compound in mg per kg of body weight administered i.v. to give a 50% increase in dP/dt.

| SMILES | EC50 [1] [µM] | ED50 [2] [mg/kg] | also measured |
| --- | --- | --- | --- |
| Cc1nc(=O)c(F)c(NCc2cccnc2)[nH]1 [Example 6, 5-Fluoro-1,4-dihydro-2-methyl-6-[(3-pyridinylmethyl)amino]-4-pyrimidinone] |  |  | activation at 100 µM ([1]; at 10^-4 M): 69% |
| Cc1nc(O)c(C)c(NCCc2ccncc2)n1 [Example 8, 2,5-Dimethyl-6-[(2-(4-pyridinyl)ethyl)amino]-4-pyrimidinol] |  |  | activation at 100 µM ([1]; at 10^-4 (unit inferred)): 52% |
| Cc1nc(O)c(Br)c(NCCc2ccccc2)n1 [Example 9, 5-Bromo-2-methyl-6-[(2-phenylethyl)amino]-4-pyrimidinol] |  | 0.03 | EC50 ([1]; unit inferred): 13 µM |
| Cc1nc(O)c(Br)c(NCCc2ccncc2)n1 [Example 10, 5-Bromo-2-methyl-6-[[2-(4-pyridinyl)ethyl]amino]-4-pyrimidinol] |  |  | EC50 ([1]; unit inferred): 250 µM |
| CCNc1nc(C)nc(O)c1C [Example 12, 6-(Ethylamino)-2,5-dimethyl-4-pyrimidinol] | 5 | 0.04 |  |
| Cc1nc(O)c(C)c(NCC2CC2)n1 [Example 13, 6-[(Cyclopropylmethyl)amino]-2,5-dimethyl-4-pyrimidinol] | 3.7 | 0.05 |  |
| CCNc1nc(C)nc(O)c1C(C)C [Example 14, 6-(Ethylamino)-2-methyl-5-(1-methylethyl)-4-pyrimidinol] |  | 0.04 | activation at 100 µM ([1]; at 10^-4 M): 86% |
| Cc1nc(O)c(Br)c(NCCO)n1 [Example 16, 5-Bromo-6-[(2-hydroxyethyl)amino]-2-methyl-4-pyrimidinol] | 8.2 |  |  |
| Cc1nc(O)c(C(C)C)c(NCC2CC2)n1 [Example 17, 6-[(Cyclopropylmethyl)amino]-2-methyl-5-(1-methylethyl)-4-pyrimidinol] |  | 0.5 | activation at 100 µM ([1]; at 10^-4 M): 185% |

Further lines, with some results ahead:

| EC50 [1] [µM] | SMILES | ED50 [2] [mg/kg] | also measured |
| --- | --- | --- | --- |
| 2.5 | Cc1nc(O)c(Br)c(NCc2cccnc2)n1 [Example 1, 5-Bromo-2-methyl-6-[(3-pyridinylmethyl)amino]-4-pyrimidinol] | 0.012 |  |
| 2.9 | Cc1nc(=O)c(C)c(NCCc2cccn2C)[nH]1 [Example 2, 1,4-Dihydro-2,5-dimethyl-6-[[2-(1-methyl-1H-pyrrol-2-yl)ethyl]amino]-4-pyrimidinone] |  |  |
| 1 | Cc1nc(O)c(Cl)c(NCc2cccnc2)n1 [Example 3, 5-Chloro-2-methyl-6-[(3-pyridinylmethyl)amino]-4-pyrimidinol] | 0.02 |  |
| 1.5 | Cc1nc(O)c(Cl)c(NCCc2ccccc2)n1 [Example 4, 5-Chloro-2-methyl-6-[(2-phenylethyl)amino]-4-pyrimidinol] | 0.04 |  |
| 11 | Cc1nc(=O)c(C)c(NCc2cccnc2)[nH]1 [Example 5, 1,4-Dihydro-2,5-dimethyl-6-[(3-pyridinylmethyl)amino]-pyrimidine-4-one] | 0.05 |  |
| 7.4 | Cc1nc(O)c(C(C)C)c(NCc2cccnc2)n1 [Example 7, 2-Methyl-5-(1-methylethyl)-6-[(3-pyridinylmethyl)amino]-4-pyrimidinol] | 0.13 |  |
| 10 | Cc1nc(O)c(C)c(NCc2ccco2)n1 [Example 11, 6-[(2-Furanylmethyl)amino]-2,5-dimethyl-4-pyrimidinol] |  |  |
| 2.8 | CCNc1[nH]c(C)nc(=O)c1Br [Example 15, 5-Bromo-1,4-dihydro-6-(ethylamino)-2-methyl-4-pyrimidinone] | 0.01 |  |
